Patent US20180303101A1, “METHOD OF IMPROVING GRASS QUALITY” (priority 2004, published 2018)

Tested on: creeping bentgrass (variety Penncross) turf
Test: Bentgrass color rating after foliar spray (Example 4)
Type: in vivo
Conditions: 6 weeks after treatment; iprodione 4 oz/1000 sq. ft.; Pigment Green 7 6.8 or 13.6 g/1000 sq. ft. in combination, 13.6 g alone
Description: Pigment Green 7 was suspended in water and applied as a foliar spray to creeping bentgrass (variety Penncross) turf with a pressurized sprayer at a spray volume of 1.37 gallons of water per 1000 sq. ft. (ca. 560 l/ha). Pigment Green 7 was applied at rates of 6.8, 13.9, and 20.4 grams per 1000 sq. ft. (0.73, 1.5, and 2.2 kg/ha, respectively). Each treatment was replicated 4 times. An untreated plot was included and was also replicated four times. The average color of the bentgrass was visually evaluated at 6 weeks after treatment. Color was evaluated on a qualitative scale from 1-9, with 9 being the highest quality and 1 the lowest quality.
The procedure of Example 2 was repeated using iprodione fungicide (in the form of 26 GT brand iprodione fungicide) at 4 oz/1000 sq. ft. (ca. 1.3 mL/m2), iprodione at 4 oz/1000 sq. ft. (ca. 1.3 mL/m2) plus Pigment Green 7 at 6.8 g/1000 sq. ft. (0.73 kg/ha), iprodione at 4 oz/1000 sq. ft. plus Pigment Green 7 at 13.6 g/1000 sq. ft. (1.5 kg/ha), and Pigment Green 7 at 13.6 g/1000 sq. ft. (1.5 kg/ha). At 6 weeks after treatment, the color ratings were as follows.

CC(C)NC(=O)N1CC(=O)N(c2cc(Cl)cc(Cl)c2)C1=O [iprodione, 3-(3,5-dichlorophenyl)-N-(l-methylethyl)-2,4-dioxo-1-imidazolidinecarbox-amide, reference compound]
Color rating versus untreated check: not significantly different than the untreated check
